Reference: US11752125B2, “Anti-neuroinflammatory and protective compounds in Achillea fragrantissima” (THE STATE OF ISRAEL MINISTRY OF AGRICULTURE & RURAL …, priority 2013, dated 2023)

How the values were obtained:
MEK1 = assay: SNP-induced MEK1 phosphorylation in N2a cells (ELISA); type: cell-based; settings: concomitant treatment 40 min, total protein not affected
Procedure: N2a cells were treated concomitantly with SNP and TTF for 40 min. Cells were extracted and the levels of phosphorylated or total MEK1 were determined by specific ELISA kits. The results are shown in FIG. 20 are the mean±SEM of two different experiments […].

microglial cells [1] = assay: Viability of microglial cells in MMP-9 experiments (crystal violet); type: cell-based, rat; settings: 24 h
Procedure: [formula] In MMP-9 experiments and in the cellular antioxidant activity (CAA) assays, cell viability was determined by a modification of the crystal violet assay. Microglial cells were treated with the indicated concentrations of achillolide A, followed by stimulation with LPS (4.5 ng/mL). Conditioned media were collected 24 h later and tested for MMP-9 activity by gel zymography as shown in FIG. 23 A. The zymogram represents two independent experiments. The levels of MMP-9 transcripts were measured by quantitative real-time PCR. The results from three technical replicates were normalized to β-actin and are expressed as relative quantity of MMP-9 transcripts in FIG. 23 B. The results are means±SD of one representative experiment out of three experiments. Cell viability was determined 24 h later by the crystal violet assay. Values represent the means±SEM (n=4 for each treatment).

microglial cells [2] = assay: Cellular antioxidant activity (ABAP peroxyl radicals) in microglial cells; type: cell-based, rat; settings: ABAP 0.6 mM, dexamethasone at nanomolar concentrations
Procedure: Intracellular ROS production was detected using the non-fluorescent cell permeating compound, 2′7′-dichlorofluorescein diacetate (DCF-DA). DCF-DA is hydrolyzed by intracellular esterases and then oxidized by ROS to a fluorescent compound 2′-7′-DCF. Peroxyl radicals are generated by thermolysis of 2,2′-Azobis(amidinopropane) (ABAP) at physiological temperature. ABAP decomposes at approximately 1.36×10^−6s^−1 at 37° C., producing at most 1×10^12 radicals/mL/s. Microglial cells (130,000 cells/well) were plated in DMEM containing 2% FBS, 8.4 mM HEPES, 2 mM glutamine, 100 U/mL penicillin and 100 μg/mL streptomycin, onto 24 wells plates. In order to measure the ability of achillolide A to enter the cells and prevent the formation of DCF by ABAP-generated peroxyl radicals, cells were incubated for 1 h with achillolide A. Then cells were preloaded with DCF-DA for 30 min, washed twice with PBS, and ABAP (0.6 mM final concentration) was then added. The fluorescence, which indicates ROS levels, was measured in a plate reader with excitation at 485 nm and emission at 520 nm.
Cells were incubated for 1 h with different concentrations of achillolide A. Then, the cells were pre-loaded with DCF-DA for 30 min and washed. ABAP (0.6 mM) was added to the culture and ROS levels were measured at the indicated time points. […]

[3] = test system: LPS-activated splenocytes; assay: Cytokine secretion from LPS-activated splenocytes (ELISA); type: cell-based, mouse; settings: LPS 5 μg/mL; 24 h (IL-2) or 48 hr
Procedure: 1. Sacrifice Balb/c mice by decapitation. 2. Remove spleens from mice, pool, and squeeze to single cell suspension 3. Lyse red blood cells using lysis buffer, and wash cells several times. 4. Plate splenocytes (5×10^6 cells/well) on a 24-well tissue culture plate, in DMEM containing 10% FBS, 2 mM glutamine, 100 U/ml penicillin and 100 micrograms/mL streptomycin; 5. Treat cells with freshly diluted AcA of the invention; 6. Activate […] with lipopolysaccharide (LPS, 5 micrograms/mL); 7. Collect conditioned media for the measurement of cytokine levels; IL-2, after 24 h; IFNγ, TNF-α, IL-10, IL-12 and IL-6 after 48 hr. 8. Measure the levels of cytokines by ELISA; Ten naive Balb/c mice were sacrificed by decapitation. […] Spleens were removed from mice, pooled and squeezed to single cell suspension. Red blood cells were lysed using lysis buffer, cells were washed several times, and were plated (5×10^6 cells/well/ml) on a 24-well tissue culture plate. Cells were then stimulated with LPS (5 μg/mL) in the presence or absence of achillolide A. Conditioned media of the cells were collected for analysis: IL-2, after 24 h; IFNγ, TNF-α, IL-10, IL-12 and IL-6 after 48 hr. Cytokine levels were measured by ELISA in supernatants collected at the indicated time points. Data represent the mean±SEM from two different experiments performed in duplicates. […]

GDNF = GDNF transcript levels in primary astrocytes (real-time PCR); type: cell-based, rat; settings: 24 h treatment
Text: 1. Produce a primary culture of rat brain glial cells according to the method described in “Protective effects of the essential oil of salvia fruticosa and its constituents on astrocytic susceptibility to hydrogen peroxide-induced cell death”. 2009. A. Elmann, S. Mordechay, M. Rindner, O. Larkov, M. Elkabetz, U. Ravid. Journal of agricultural and food chemistry. 57(15):6636-41; 2. Separate astrocytes from other cell types in the culture according to the method described in “Protective effects of the essential oil of salvia fruticosa and its constituents on astrocytic susceptibility to hydrogen peroxide-induced cell death”. 2009. A. Elmann, S. Mordechay, M. Rindner, O. Larkov, M. Elkabetz, U. Ravid. Journal of agricultural and food chemistry. 57(15):6636-41; 3. Plate astrocytes in 6-wells PDL-coated plastic plates at a density of 2×10^6 cells/well, in DMEM/F12 containing 5% FBS, 2 millimolar glutamine, 100 U/ml penicillin, and 100 micrograms/ml streptomycin. 4. Incubate the culture for 24 hr (37° C., 5% CO2); 5. Aspirate medium and add fresh medium to the cells. 6. […]
Astrocytes were treated with achillolide A for 24 h. […] GDNF transcripts were measured using quantitative real time PCR. The results of three technical replicates were normalized to […] and are expressed as relative quantities of GDNF transcripts. […]

| SMILES | effect on SNP-induced phosphorylation of MEK1 (MEK1) | toxicity in MMP-9 experiments (microglial cells [1]) | inhibition of the ABAP-induced increase in ROS fluorescence (microglial cells [2]) [%] | effect on cytokine secretion (IL-2, IFNγ, TNF-α, IL-10, IL-12, IL-6) [3] | effect on GDNF transcript levels (GDNF) |
| --- | --- | --- | --- | --- | --- |
| COc1cc(-c2oc3cc(OC)c(OC)c(O)c3c(=O)c2O)ccc1O [TTF, 3,5,4′-trihydroxy-6,7,3′-trimethoxyflavone] | significantly inhibited |  |  |  |  |
| C=C1CCC2=C(CO)C(=O)O[C@H]2/C=C(\C)[C@H](OC(C)=O)CC1=O [achillolide A] |  | no toxicity was observed | 54 | Downregulates | increases |
